# Where two headings read alike, the source gives them in different places.
# Tests used:
# Format in all cases: cell-based
# S. epidermidis RP62A = experiment: Time course adherence assay (prophylactic and delayed treatment); settings: for inhibition at 1 µg/mL / inhibition at 2 µg/mL / inhibition at 4 µg/mL / inhibition at 8 µg/mL: Staphylococcus epidermidis, read-out: Percent inhibition of bacterial adherence relative to controls
# Procedure: (§1) Drug effects on bacterial adherence were measured 18 hours after treatment initiation using a quantitative spectrophotometric assay.
# (§2) Relative inhibition of adherence was expressed by the following equation: (OD of control well−OD of treated well/OD of control well)×100, where OD is the mean optical density of six replicate wells from two separate experiments (three replicates per experiment). Control was defined as infected, drug-free cultures.
# (§3) The primary efficacy variable in this study was the measurement of adherent bacteria to polystyrene surfaces after 18 hours to 24 hours of growth. To determine whether statistically significant differences existed between treatments (4×MIC, 2×MIC, MIC, and ½ MIC) compared with the infected-nontreated controls, multiple comparisons according to Dunnett's test (Montgomery, Design and Analysis of Experiments (1991)) were applied for each clinical strain. Differences were considered statistically significant when p<0.05.
# S. epidermidis UC-20207 = experiment: as above; settings: for inhibition at 1 µg/mL / inhibition at 2 µg/mL / inhibition at 4 µg/mL / inhibition at 8 µg/mL: Staphylococcus epidermidis, read-out: Percent inhibition of bacterial adherence relative to controls; for Mean OD550: UC-20207
# Procedure: as §1, §2, §3
# S. epidermidis UC-20208 = experiment: as above; settings: for inhibition at 1 µg/mL / inhibition at 2 µg/mL / inhibition at 4 µg/mL / inhibition at 8 µg/mL: Staphylococcus epidermidis, read-out: Percent inhibition of bacterial adherence relative to controls; for Mean OD550: UC-20208
# Procedure: as §1, §2, §3
# [1] = test system: S. epidermidis isolates (UC-20207, UC-20208, and RP62A); experiment: Time course adherence assay, summary over three S. epidermidis isolates
# Procedure: as §1, §2, §3
# [2] = 1.0 μg/ml, treatment 0 h post-infection
# [3] = 1.0 μg/ml, treatment 2 h post-infection
# [4] = 1.0 μg/ml, treatment 4 h post-infection
# [5] = 1.0 μg/ml, treatment 6 h post-infection
# [6] = 2.0 μg/ml (MIC), treatment 0 h post-infection
# [7] = 2.0 μg/ml (MIC), treatment 2 h post-infection
# [8] = 2.0 μg/ml (MIC), treatment 4 h post-infection
# [9] = 2.0 μg/ml (MIC), treatment 6 h post-infection
# [10] = 4.0 μg/ml, treatment 0 h post-infection
# [11] = 4.0 μg/ml, treatment 2 h post-infection
# [12] = 4.0 μg/ml, treatment 4 h post-infection
# [13] = 4.0 μg/ml, treatment 6 h post-infection
# [14] = 8.0 μg/ml, treatment 0 h post-infection
# [15] = 8.0 μg/ml, treatment 2 h post-infection
# [16] = 8.0 μg/ml, treatment 4 h post-infection
# [17] = 8.0 μg/ml, treatment 6 h post-infection
compound,measurement,setting,value
CN[C@H](CC(C)C)C(=O)N[C@H]1C(=O)N[C@@H](CC(N)=O)C(=O)N[C@H]2C(=O)N[C@H]3C(=O)N[C@H](C(=O)N[C@H](C(=O)O)c4cc(O)cc(O)c4-c4cc3ccc4O)[C@H](O)c3ccc(c(Cl)c3)Oc3cc2cc(c3O[C@@H]2O[C@H](CO)[C@@H](O)[C@H](O)[C@H]2O[C@H]2C[C@](C)(N)[C@H](O)[C@H](C)O2)Oc2ccc(cc2Cl)[C@H]1O [Vancomycin],Mean OD550,S. epidermidis RP62A; [2],0.664 ± 0.632
same,Mean OD550,S. epidermidis RP62A; [3],1.147 ± 0.527
same,Mean OD550,S. epidermidis RP62A; [4],2.311 ± 0.318
same,Mean OD550,S. epidermidis RP62A; [5],2.202 ± 0.238
same,Mean OD550,S. epidermidis RP62A; [6],0.002 ± 0.002
same,Mean OD550,S. epidermidis RP62A; [7],0.000 ± 0.001
same,Mean OD550,S. epidermidis RP62A; [8],1.312 ± 0.936
same,Mean OD550,S. epidermidis RP62A; [9],2.114 ± 0.439
same,Mean OD550,S. epidermidis RP62A; [10],0.002 ± 0.002
same,Mean OD550,S. epidermidis RP62A; [11],0.000 ± 0.002
same,Mean OD550,S. epidermidis RP62A; [12],0.003 ± 0.004
same,Mean OD550,S. epidermidis RP62A; [13],1.562 ± 0.573
same,Mean OD550,S. epidermidis RP62A; [14],0.001 ± 0.001
same,Mean OD550,S. epidermidis RP62A; [15],0.000 ± 0.001
same,Mean OD550,S. epidermidis RP62A; [16],0.004 ± 0.004
same,Mean OD550,S. epidermidis RP62A; [17],0.025 ± 0.030
same,inhibition at 1 µg/mL,S. epidermidis RP62A; 0 h,69.3%
same,inhibition at 2 µg/mL,S. epidermidis RP62A; 0 h,99.9%
same,inhibition at 4 µg/mL,S. epidermidis RP62A; 0 h,99.9%
same,inhibition at 8 µg/mL,S. epidermidis RP62A; 0 h,99.9%
same,inhibition at 1 µg/mL,S. epidermidis RP62A; 2 h,41.4%
same,inhibition at 2 µg/mL,S. epidermidis RP62A; 2 h,100%
same,inhibition at 4 µg/mL,S. epidermidis RP62A; 2 h,100%
same,inhibition at 8 µg/mL,S. epidermidis RP62A; 2 h,100%
same,inhibition at 1 µg/mL,S. epidermidis RP62A; 4 h,0%
same,inhibition at 2 µg/mL,S. epidermidis RP62A; 4 h,29.4%
same,inhibition at 4 µg/mL,S. epidermidis RP62A; 4 h,99.8%
same,inhibition at 8 µg/mL,S. epidermidis RP62A; 4 h,99.8%
same,inhibition at 1 µg/mL,S. epidermidis RP62A; 6 h,0%
same,inhibition at 2 µg/mL,S. epidermidis RP62A; 6 h,0%
same,inhibition at 4 µg/mL,S. epidermidis RP62A; 6 h,19%
same,inhibition at 8 µg/mL,S. epidermidis RP62A; 6 h,98.7%
same,inhibition at 1 µg/mL,"S. epidermidis UC-20207; UC20207, 0 h",0%
same,inhibition at 2 µg/mL,"S. epidermidis UC-20207; UC20207, 0 h",99.8%
same,inhibition at 4 µg/mL,"S. epidermidis UC-20207; UC20207, 0 h",99.9%
same,inhibition at 8 µg/mL,"S. epidermidis UC-20207; UC20207, 0 h",99.9%
same,inhibition at 1 µg/mL,"S. epidermidis UC-20207; UC20207, 2 h",0%
same,inhibition at 2 µg/mL,"S. epidermidis UC-20207; UC20207, 2 h",99.4%
same,inhibition at 4 µg/mL,"S. epidermidis UC-20207; UC20207, 2 h",99.8%
same,inhibition at 8 µg/mL,"S. epidermidis UC-20207; UC20207, 2 h",99.7%
same,inhibition at 1 µg/mL,"S. epidermidis UC-20207; UC20207, 4 h",0%
same,inhibition at 2 µg/mL,"S. epidermidis UC-20207; UC20207, 4 h",3.6%
same,inhibition at 4 µg/mL,"S. epidermidis UC-20207; UC20207, 4 h",98.8%
same,inhibition at 8 µg/mL,"S. epidermidis UC-20207; UC20207, 4 h",99%
same,inhibition at 1 µg/mL,"S. epidermidis UC-20207; UC20207, 6 h",0%
same,inhibition at 2 µg/mL,"S. epidermidis UC-20207; UC20207, 6 h",0%
same,inhibition at 4 µg/mL,"S. epidermidis UC-20207; UC20207, 6 h",0%
same,inhibition at 8 µg/mL,"S. epidermidis UC-20207; UC20207, 6 h",88.5%
same,Mean OD550,S. epidermidis UC-20207; [2],2.389 ± 0.175
same,Mean OD550,S. epidermidis UC-20207; [6],0.005 ± 0.004
same,Mean OD550,S. epidermidis UC-20207; [7],0.014 ± 0.010
same,Mean OD550,S. epidermidis UC-20207; [8],2.693 ± 0.527
same,Mean OD550,S. epidermidis UC-20207; [10],0.003 ± 0.002
same,Mean OD550,S. epidermidis UC-20207; [11],0.006 ± 0.003
same,Mean OD550,S. epidermidis UC-20207; [12],0.033 ± 0.010
same,Mean OD550,S. epidermidis UC-20207; [14],0.003 ± 0.002
same,Mean OD550,S. epidermidis UC-20207; [15],0.007 ± 0.003
same,Mean OD550,S. epidermidis UC-20207; [16],0.028 ± 0.014
same,Mean OD550,S. epidermidis UC-20207; [17],0.326 ± 0.046
same,inhibition at 1 µg/mL,"S. epidermidis UC-20208; UC20208, 0 h",0%
same,inhibition at 2 µg/mL,"S. epidermidis UC-20208; UC20208, 0 h",99.9%
same,inhibition at 4 µg/mL,"S. epidermidis UC-20208; UC20208, 0 h",99.9%
same,inhibition at 8 µg/mL,"S. epidermidis UC-20208; UC20208, 0 h",99.9%
same,inhibition at 1 µg/mL,"S. epidermidis UC-20208; UC20208, 2 h",0%
same,inhibition at 2 µg/mL,"S. epidermidis UC-20208; UC20208, 2 h",99.1%
same,inhibition at 4 µg/mL,"S. epidermidis UC-20208; UC20208, 2 h",100%
same,inhibition at 8 µg/mL,"S. epidermidis UC-20208; UC20208, 2 h",100%
same,inhibition at 1 µg/mL,"S. epidermidis UC-20208; UC20208, 4 h",0%
same,inhibition at 2 µg/mL,"S. epidermidis UC-20208; UC20208, 4 h",0%
same,inhibition at 4 µg/mL,"S. epidermidis UC-20208; UC20208, 4 h",85.1%
same,inhibition at 8 µg/mL,"S. epidermidis UC-20208; UC20208, 4 h",99.6%
same,inhibition at 1 µg/mL,"S. epidermidis UC-20208; UC20208, 6 h",0%
same,inhibition at 2 µg/mL,"S. epidermidis UC-20208; UC20208, 6 h",0%
same,inhibition at 4 µg/mL,"S. epidermidis UC-20208; UC20208, 6 h",0%
same,inhibition at 8 µg/mL,"S. epidermidis UC-20208; UC20208, 6 h",0%
same,Mean OD550,S. epidermidis UC-20208; [2],1.865 ± 0.309
same,Mean OD550,S. epidermidis UC-20208; [3],1.865 ± 0.435
same,Mean OD550,S. epidermidis UC-20208; [4],1.752 ± 0.566
same,Mean OD550,S. epidermidis UC-20208; [5],1.127 ± 0.463
same,Mean OD550,S. epidermidis UC-20208; [6],0.001 ± 0.000
same,Mean OD550,S. epidermidis UC-20208; [7],0.014 ± 0.036
same,Mean OD550,S. epidermidis UC-20208; [8],2.414 ± 0.558
same,Mean OD550,S. epidermidis UC-20208; [9],1.281 ± 0.555
same,Mean OD550,S. epidermidis UC-20208; [10],0.001 ± 0.001
same,Mean OD550,S. epidermidis UC-20208; [11],0.000 ± 0.001
same,Mean OD550,S. epidermidis UC-20208; [12],0.239 ± 0.261
same,Mean OD550,S. epidermidis UC-20208; [13],1.555 ± 0.206
same,Mean OD550,S. epidermidis UC-20208; [14],0.001 ± 0.001
same,Mean OD550,S. epidermidis UC-20208; [15],0.000 ± 0.001
same,Mean OD550,S. epidermidis UC-20208; [16],0.006 ± 0.002
same,activity against cell adhesion,[1]; subtherapeutic concentrations (one-half MIC),minimal or no activity against cell adhesion
same,anti-adhesion activity,"[1]; therapeutic levels, administered 2 hours post-infection, compared with linezolid",equally effective
same,anti-adhesion activity,[1]; treatments delayed by 4 to 6 hours,only the highest concentrations (>MIC) demonstrated anti-adhesion activity
